Experimental data taken from patent US20240408129A1, “TISSUE FORMATION AGENT” (NATIONAL UNIVERSITY CORPORATION SHIGA UNIVERSITY OF MEDICAL …, priority 2021, published 2024).

System: tissue between the subcutaneous fascia of the rat back
Settings: in vivo, sc
Description: Six rats (Wistar/ST female) were anesthetized by intraperitoneal administration of pentobarbital and inhalation of isoflurane, and each of the solutions (physiological saline and a 2% aqueous solution of low-endotoxin sodium alginate AL2) was individually injected (implanted) in an amount of 1 ml into the tissue between the subcutaneous fascia at a subcutaneous depth of about 1 cm at each of eight sites from the upper back to the lower back, using 1-ml syringe and a 23 G needle. The injection of each solution was performed after randomization. Each needle entry site was sutured with one stitch of 5-0 proline thread.
After 3 weeks, each rat was sacrificed by pentobarbital overdose, and the back implantation sites were cut out and immersion-fixed in a 10% formaldehyde solution. The fixed tissues were subjected to hematoxylin-eosin staining (HE staining) and safranin-O staining (SOFG staining) according to usual methods.
After 12 weeks, HE staining and SOFG staining were performed in the same manner as in Example 1.
Rats in which implantation was performed in the same manner as in Example 4 were subjected to MTC staining, and type I collagen staining in addition to HE staining and SOFG staining. […] MTC staining and type I collagen staining were performed according to usual methods. […]

With collagen the “retention / residual implanted material at injection site” value was “present in an amorphous state at the injection sites”.
